Where two headings read alike, the source gives them in different places.

The target of assay [1] is T1, Human recombinant MKlp2 motor domain1-519, His tagged (Homo sapiens, UniProt O95235).
T1 construct: Human recombinant MKlp2 motor domain1-519, His tagged; His; purchased Cytoskeleton MP05
T1 sequence (O95235 1-519): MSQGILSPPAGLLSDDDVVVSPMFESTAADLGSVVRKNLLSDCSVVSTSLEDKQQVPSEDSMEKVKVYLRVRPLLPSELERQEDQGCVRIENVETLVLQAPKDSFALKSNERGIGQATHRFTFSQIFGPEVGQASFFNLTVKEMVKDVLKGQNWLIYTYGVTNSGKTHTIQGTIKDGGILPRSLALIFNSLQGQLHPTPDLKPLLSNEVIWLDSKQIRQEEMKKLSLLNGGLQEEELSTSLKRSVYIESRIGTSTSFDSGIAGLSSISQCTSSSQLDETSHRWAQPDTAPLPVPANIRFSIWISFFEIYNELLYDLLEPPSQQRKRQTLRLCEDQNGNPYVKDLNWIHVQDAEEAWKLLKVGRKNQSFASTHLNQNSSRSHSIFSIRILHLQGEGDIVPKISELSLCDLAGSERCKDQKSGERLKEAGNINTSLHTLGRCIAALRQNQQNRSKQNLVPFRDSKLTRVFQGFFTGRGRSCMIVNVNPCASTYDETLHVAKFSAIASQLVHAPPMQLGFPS
Description: Microtubule stimulated ATPase activity of the MKlp2 motor domain (Kinesin ELIPA Assay Kit). It counts as biochemical. How it is done: Evaluation of Inhibitory Effects on the Microtubule Stimulated ATPase Activity of the MKlp2 Motor Domain.
MKlp2 ATPase activity was measured by monitoring real time free phosphate generation using the Kinesin ELIPA Assay Kit. The assay is based upon an absorbance shift (330 nm-360 nm) that occurs when 2-amino-6-mercapto-7-methylpurine ribonucleoside (MESG) is catalytically converted to 2-amino-6-mercapto-7-methylpurine in the presence of inorganic phosphate (Pi). One molecule of Pi will yield one molecule of 2-amino-6-mercapto-7-methylpurine in an essentially irreversible reaction.
All experiments were performed at 22° C.
Condition 1, compound preparation.
The compounds were dissolved in DMSO at 30× the maximum concentration to be tested. […] DMSO solutions were pipetted directly into each well.
Condition 2, reaction's “motor mix”.
The following were mixed sequentially in the specified order at RT to obtain the “motor mix”.
20 mL: 15 mM Pipes-NaOH pH 7.0, 10 mM MgCl2, 30 μM Tx (Buffer 1).
10 mL: 5× MSEG (ELIPA 1 reagent, Cat. # BK051).
10 mL: 2.5 mg/mL porcine brain microtubules (3×10 mg Cat. # MT002-XL resuspended in 12 mL of Buffer 1).
0.5 mL: 100×PNP (ELIPA 2 reagent, cat. # BK051).
Condition 3, reaction initiation.
The motor mix was pipetted into each well to obtain 80% of total volume. The reaction was initiated by adding a 20% of total volume of 5 mM ATP into each well.
The reactions were measured in a SpectraMax M2 (Molecular Devices) set in kinetic mode and 360 nm absorbance wavelength. The start protocol was 5 second rapid circular mixing, 21 readings, 30 seconds apart.

The next assay has as its system K562 cells. Description: Cytotoxicity on human cancer cells (WST-1), K562. In kind it is cell-based. How it is done:
Evaluation of Cytotoxicity Effects on Human Cancer Cells
The effects of the compounds of the invention on the viability of human cancer cells were studied on various human cancer cell lines of differing tissue origins (A549, NCI-H460: lung cancer; MDA-MB-231: breast cancer; HCT-116, HT-29: colon cancer; MIA-PaCa-2: pancreatic cancer; K562: leukaemia). All cell lines were obtained from ATCC or ECACC. Cells were cultured in the culture media described below, under a 37° C., 5% CO2 humidified atmosphere, according to a standard operating procedure.
On D0, the cells were plated in 90 μl in 96 wells plates at densities ranging from 500 to 5,000 cells per well.
Following addition of the test substance the cells were protected from light. The solvents (DMSO and specific control solvent were added at the maximal concentration: 10 μl/well (3 wells/condition)).
On D4, the Cell Proliferation Reagent WST-1 was added to each well (10 μl/well), according to a standard operating procedure. The cells were then incubated for 30 min to 4 h at 37° C.-5% CO2. After these incubations, the 96-well plates were shaken thoroughly for 1 min with Multiskan® EX apparatus (Thermo Labsystems, France). The absorbence was measured at 450 nm, the reference wavelength being 620 nm. The analysis of the results was performed with the Ascent software 2.6 (Thermo Labsystems, France), Microsoft Excel 2003 and GraphPad Prism 4.03 softwares to give the concentration of the compounds that induces the death of 50% of the cells (IC50).
(Tetrazolium assays rely on reduction of a dye to a coloured formazan, in cell work by metabolically active cells.)

Setting [2] is: Table 6 (prodrugs, formula II), read-out: MKIp2 IC50.
Setting [3] is: Table 6 (prodrugs, formula II), K562 cells, WST-1 on D4, read-out: K562 IC50.
[4] abbreviates: Table 3, 22° C., read-out: MKIp2 IC50.
[5] abbreviates: Table 4, K562 leukaemia cells, WST-1 on D4, read-out: K562 IC50.
Where [6] appears, read: MKIp2 IC50 (μM), Table 3, 22° C.

One may read the IC50 as the concentration at which inhibition is half-maximal. With `COc1ccc(C#N)cc1/C=C(\C#N)c1cn(C(=O)CC(NC(=O)OC(C)(C)C)C(=O)OCc2ccccc2)c2ccc(Br)cc12` (stereo in doubt) [Example 65, (R,Z)-benzyl-4-(5-bromo-3-(1-cyano-2-(5-cyano-2-methoxyphenyl)vinyl)-1H-indol-1-yl)-2-(tert-butoxycarbonylamino)-4-oxobutanoate], the IC50 amounted to 10.1 µM in assay [1] (setting [2]) and 0.04 µM in the assay on K562 cells (setting [3]). The like results for `COc1ccc(C#N)cc1/C=C(\C#N)c1cn(C(=O)CCC(NC(=O)OC(C)(C)C)C(=O)OC(C)(C)C)c2ccc(Br)cc12` (stereo in doubt) [Example 66, (R,Z)-tert-butyl-5-(5-bromo-3-(1-cyano-2-(5-cyano-2-methoxyphenyl)vinyl)-1H-indol-1-yl)-2-(tert-butoxycarbonylamino)-5-oxopentanoate] were, in that order, 5.4 µM and 0.03 µM. `COc1ccc(C#N)cc1/C=C(\C#N)c1cn(C(=O)CC(N)C(=O)OCc2ccccc2)c2ccc(Br)cc12` (stereo in doubt) [Example 67, (R,Z)-benzyl-2-amino-4-(5-bromo-3-(1-cyano-2-(5-cyano-2-methoxyphenyl)vinyl)-1H-indol-1-yl)-4-oxobutanoate]: the results for the IC50 (in assay [1] (setting [2]); with K562 cells (setting [3])) were 3.1 µM and 0.04 µM, respectively.

In the case of `N#C/C(=C\c1cnccc1Cl)c1c[nH]c2ccc(Cl)cc12` [Example 3, (Z)-2-(5-chloro-1H-indol-3-yl)-3-(4-chloropyridin-3-yl)acrylonitrile], the IC50 in assay [1] (setting [4]) is 0.8 µM; in the assay with K562 cells (setting [5]) it was 3.6 µM. Turning to `N#C/C(=C\c1cnccc1Cl)c1c[nH]c2ccc(Br)cc12` [Example 4, (Z)-2-(5-bromo-1H-indol-3-yl)-3-(4-chloropyridin-3-yl)acrylonitrile], the figures for the IC50 (in assay [1] (setting [4]); in the assay with K562 cells (setting [5])) were 0.7 µM and 1.4 µM, respectively. With `COc1ccncc1/C=C(/C#N)c1c[nH]c2ccc(Br)cc12` [Example 5b, (E)-2-(5-bromo-1H-indol-3-yl)-3-(4-methoxypyridin-3-yl)acrylonitrile], the figures for the IC50 (in assay [1] (setting [4]); with K562 cells (setting [5])) were 0.61 µM and 3.92 µM, respectively. For `CN(C)c1ccncc1/C=C(\C#N)c1c[nH]c2ccc(Br)cc12` [Example 8, (Z)-2-(5-bromo-1H-indol-3-yl)-3-(4-(dimethylamino)pyridin-3-yl)acrylonitrile] the same measures were 0.9 µM and 7.5 µM. The like results for `COc1ccncc1/C=C(\C#N)c1c[nH]c2ccc(Cl)cc12` [Example 9, (Z)-2-(5-chloro-1H-indol-3-yl)-3-(4-methoxypyridin-3-yl)acrylonitrile] were, in that order, 0.1 µM and 1.4 µM.

`COc1ccc2[nH]cc(/C(C#N)=C/c3cnccc3OC)c2c1` [Example 12, (Z)-2-(5-methoxy-1H-indol-3-yl)-3-(4-methoxypyridin-3-yl)acrylonitrile]: the IC50 in assay [1] (setting [4]) is 0.3 µM; in the assay on K562 cells (setting [5]), 0.9 µM. In the case of `CSc1ccncc1/C=C(\C#N)c1c[nH]c2ccc(Br)cc12` [Example 15, (Z)-2-(5-bromo-1H-indol-3-yl)-3-(4-(methylthio)pyridin-3-yl)acrylonitrile], the figures for the IC50 (in assay [1] (setting [4]); in the assay with K562 cells (setting [5])) were 0.2 µM and 2.9 µM, respectively. In the case of `CCN(CC)c1ccncc1/C=C(\C#N)c1c[nH]c2ccc(Br)cc12` [Example 24, (Z)-2-(5-bromo-1H-indol-3-yl)-3-(4-(diethylamino)pyridin-3-yl)acrylonitrile], the IC50 came out at 1.1 µM in assay [1] (setting [4]) and 3.1 µM in the assay with K562 cells (setting [5]). Regarding `N#C/C(=C\c1cnccc1-c1ccoc1)c1c[nH]c2ccc(Cl)cc12` [Example 29, (Z)-2-(5-chloro-1H-indol-3-yl)-3-(4-(furan-3-yl)pyridin-3-yl)acrylonitrile], the figures for the IC50 (in assay [1] (setting [4]); with K562 cells (setting [5])) were 0.03 µM and 4.7 µM, respectively. For `N#C/C(=C\c1cnccc1O)c1c[nH]c2ccc(Cl)cc12` [Example 50, (Z)-2-(5-chloro-1H-indol-3-yl)-3-(4-hydroxypyridin-3-yl)acrylonitrile], the IC50 in the assay with K562 cells (setting [5]) amounted to 14.7 µM. Consider `N#C/C(=C\c1cc(C#N)ccc1O)c1c[nH]c2ccc(Br)cc12` [Example 51, (Z)-3-(2-(5-bromo-1H-indol-3-yl)-2-cyanovinyl)-4-hydroxybenzonitrile], for which the IC50 in the assay with K562 cells (setting [5]) was 0.5 µM. As for `N#C/C(=C\c1cc(C#N)ccc1OC(F)(F)F)c1c[nH]c2ccc(Cl)cc12` [Example 52, (Z)-3-(2-(5-chloro-1H-indol-3-yl)-2-cyanovinyl)-4-(trifluoromethoxy)benzonitrile], in the assay with K562 cells (setting [5]), the IC50 came to 0.85 µM. As for `N#C/C(=C\c1cc(C#N)ccc1OC(F)(F)F)c1c[nH]c2ccc(Br)cc12` [Example 53, (Z)-3-(2-(5-bromo-1H-indol-3-yl)-2-cyanovinyl)-4-(trifluoromethoxy)benzonitrile], the concentration for half-maximal inhibition (IC50) in the assay on K562 cells (setting [5]) came out at 0.38 µM. As for `COc1ccncc1/C=C(\C#N)c1cn(C(=O)OCCN2CCN(C)CC2)c2ccc(Br)cc12` [Example 62, (Z)-2-(4-methylpiperazin-1-yl)ethyl 5-bromo-3-(1-cyano-2-(4-methoxypyridin-3-yl)vinyl)-1H-indole-1-carboxylate], the IC50 in assay [1] (setting [4]) was 0.35 µM. For the compound `N#CC(=Cc1cccnc1)c1c[nH]c2ccccc12` [W02010/150211-Example 1, reference compound], the concentration for half-maximal inhibition (IC50) with K562 cells (K562, read-out: K562 IC50 (μM)) turned out to be 21.4 µM. Take `COc1ccc2[nH]cc(C(C#N)=Cc3cccnc3)c2c1` [W02010/150211-Example 4, reference compound]: the IC50 in assay [1] (setting [6]) is 4.2 µM.

Consider `CCOc1ccc2[nH]cc(C(C#N)=Cc3cccnc3)c2c1` [W02010/150211-Example 22, reference compound], for which, in assay [1] (setting [6]), the IC50 is 5.2 µM. Still for that read-out and setting: the value for `CC(C)Oc1ccc2[nH]cc(C(C#N)=Cc3cccnc3)c2c1` [W02010/150211-Example 23, reference compound] was 5.2 µM; that for `N#CC(=Cc1cccnc1)c1c[nH]c2ccc(Cl)cc12` [W02010/150211-Example 24, reference compound] was 1.1 µM; that for `COc1ccc2c(C(C#N)=Cc3cccnc3)c[nH]c2c1` [W02010/150211-Example 26, reference compound] was 26.5 µM.

Turning to `COc1ccc2[nH]cc(C(C#N)=Cc3ccc(F)nc3)c2c1` [W02010/150211-Example 28, reference compound], the IC50 in assay [1] (setting [6]) is 2.4 µM. For `COc1ccc2[nH]cc(C(C#N)=Cc3cccc(C#N)c3)c2c1` [W02010/150211-Example 30, reference compound], in assay [1] (setting [6]), the IC50 turned out to be 4.4 µM. As to `COc1ccc2[nH]cc(C(C#N)=Cc3cnccc3C)c2c1` [W02010/150211-Example 31, reference compound], in assay [1] (setting [6]), the IC50 stood at 2.3 µM.

As to `COc1ccc2[nH]cc(C(C#N)=Cc3cnccc3Cl)c2c1` [W02010/150211-Example 47, reference compound], in assay [1] (setting [6]), the IC50 turned out to be 1.6 µM. Same read-out and setting: the value for `COc1ccc2[nH]cc(C(C#N)=Cc3ccc(OC)nc3)c2c1` [W02010/150211-Example 52, reference compound] was 12.6 µM.

The record behind these values is patent publication US10189782B2, “Derivatives of indole for the treatment of cancer, viral infections and lung diseases” (BIOKINESIS, priority 2012, dated 2019).
